Assays:
[1] = compound: Cc1cnc(CNC(=O)c2c(=O)c3ccc(N4CCCN(C)CC4)nc3n3c2sc2ccccc23)cn1 [CX-5461] + CCNC(=O)c1noc(-c2cc(C(C)C)c(O)cc2O)c1-c1ccc(CN2CCOCC2)cc1 [Luminespib] (partner 0.01 µM); test: relative viability (nuclei count vs DMSO), 5 days (fraction); higher = more cells survive
How it was run: (§1)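 Dosing by pin tool came one day after lung cancer cell lines were seeded in 1536-well plates, using either one drug or a fixed anchor-drug dose plus five library-drug doses (not always all listed) in √10 steps. After 5 days, nuclei were counted on 4× images. Relative viability is treated-well nuclei count divided by vehicle-well nuclei count, and values are medians of duplicate plates.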

[2] = compound: Cc1cnc(CNC(=O)c2c(=O)c3ccc(N4CCCN(C)CC4)nc3n3c2sc2ccccc23)cn1 [CX-5461] + Cc1nc(Nc2ncc(C(=O)Nc3c(C)cccc3Cl)s2)cc(N2CCN(CCO)CC2)n1 [Dasatinib] (partner 0.075 µM); test: as above
How it was run: as §1

Cell Line	relative viability ([1]; first compound 0.01 µM)	relative viability ([1]; first compound 0.03162 µM)	relative viability ([1]; first compound 0.1 µM)	relative viability ([1]; first compound 0.3162 µM)	relative viability ([1]; first compound 1 µM)	relative viability ([2]; first compound 0.01 µM)	relative viability ([2]; first compound 0.03162 µM)	relative viability ([2]; first compound 0.1 µM)	relative viability ([2]; first compound 0.3162 µM)	relative viability ([2]; first compound 1 µM)
NCI-H727	0.664	0.439	0.384	0.58	0.321	0.324	0.361	0.253	0.377	0.31
NCI-H1355	0.843	0.728	0.753	0.706	0.814	0.81	0.792	0.665	0.449	0.389
HOP-62	0.849	0.921	0.905	0.973	0.917	0.724	0.661	0.704	0.675	0.489
NCI-H2085	0.488	0.404	0.32	0.567	0.405	0.237	0.228	0.257	0.229	0.252
